The results in this text go back to patent publication US11584765B2 (priority 2017, dated 2023).

The subject of this experiment is C57BL/6 mice. As to the kind of experiment: animal or person. In kind it is in vivo. The following applies: Mus musculus, sc, 0.5 h, s.c. administration, 30 min, 55° C. water, read-out: ED50 (mg/kg) at 30 min on C57BL/6 mice in Warm-water Tail-flick Test. For orientation: In hot-plate and tail-flick tests a longer latency is read as antinociception.
`CC(=O)Nc1ccc(CN2CCC(CCc3ccccc3)(CN(C)C)CC2)cc1` [Compound 56, N-(4-((4-((dimethylamino)methyl)-4-phenethylpiperidin-1-yl)methyl)phenyl)acetamide]: the ED50 was greater than 10 mg/kg.

As for `CC(=O)Nc1ccc(CN2CCC(CCc3ccccc3)(CN(C)C(C)=O)CC2)cc1` [Compound 57, N-((1-(4-acetamidobenzyl)-4-phenethylpiperidin-4-yl)methyl)-N-methylacetamide], the ED50 is greater than 10 mg/kg.

With `CC(=O)Nc1ccc(CN2CCC(CCc3ccccc3)(COC(C)=O)CC2)cc1` [Compound 58, (1-(4-acetamidobenzyl)-4-phenethylpiperidin-4-yl)methyl acetate], the ED50 is greater than 10 mg/kg.

Consider `CCOCC1(CCc2ccccc2)CCN(Cc2ccc(NC(C)=O)cc2)CC1` [Compound 59, N-(4-((4-(ethoxymethyl)-4-phenethylpiperidin-1-yl)methyl)phenyl)acetamide], for which the ED50 was less than 10 mg/kg.

On to `CC(=O)Nc1ccc(CN2CCC(CCc3ccccc3)(C(N)=O)CC2)cc1` [Compound 60, 1-(4-acetamidobenzyl)-4-phenethylpiperidine-4-carboxamide], for which the ED50 is greater than 10 mg/kg.

In the case of `Oc1ccc(CN2CCC(CCc3ccccc3)(c3ccccn3)CC2)cc1` [Compound 61, 4-((4-phenethyl-4-(pyridin-2-yl)piperidin-1-yl)methyl)phenol], the ED50 was greater than 10 mg/kg.

With `COc1ccc(C2(/C=C/c3ccccc3)CCN(Cc3ccc(NC(C)=O)cc3)CC2)nc1` [Compound 62, (E)-N-(4-((4-(5-methoxypyridin-2-yl)-4-styrylpiperidin-1-yl)methyl)phenyl)acetamide], the ED50 is greater than 10 mg/kg.

`COc1ccc(C2(/C=C\c3ccccc3)CCN(Cc3ccc(NC(C)=O)cc3)CC2)nc1` [Compound 63, (Z)-N-(4-((4-(5-methoxypyridin-2-yl)-4-styrylpiperidin-1-yl)methyl)phenyl)acetamide]: the ED50 was greater than 10 mg/kg.

Turning to `CS(=O)(=O)N(c1ccc(CN2CCC(CCc3ccccc3)(c3ccccn3)CC2)cc1)S(C)(=O)=O` [Compound 64, N-(methylsulfonyl)-N-(4-((4-phenethyl-4-(pyridin-2-yl)piperidin-1-yl)methyl)phenyl)methane-sulfonamide], the ED50 is greater than 10 mg/kg.

On to `CNC(=O)C1(CCc2ccccc2)CCN(Cc2ccc(NC(C)=O)cc2)CC1` [Compound 65], for which the ED50 is greater than 10 mg/kg.

For the compound `CC(=O)Nc1ccc(CN2CCC(CCc3ccccc3)(C(=O)N(C)C)CC2)cc1` [Compound 66, 1-(4-acetamidobenzyl)-N,N-dimethyl-4-phenethylpiperidine-4-carboxamide], the ED50 is greater than 10 mg/kg.

In the case of `CC(=O)NCC1(CCc2ccccc2)CCN(Cc2ccc(NC(C)=O)cc2)CC1` [Compound 67, N-((1-(4-acetamidobenzyl)-4-phenethylpiperidin-4-yl)methyl)acetamide], the ED50 is greater than 10 mg/kg.

`CC(=O)Nc1ccc(CN2CCC(CO)(CCc3ccccc3)CC2)cc1` [Compound 68, N-(4-((4-(hydroxymethyl)-4-phenethylpiperidin-1-yl)methyl)phenyl)acetamide]: the ED50 was greater than 10 mg/kg.

As for `CC(=O)Nc1ccc(CN2CCC(CCc3ccccc3)(C3CCCO3)CC2)cc1` (stereo not shown) [Compound 69, N-(4-((4-phenethyl-4-(tetrahydrofuran-2-yl)piperidin-1-yl)methyl)phenyl)acetamide], the ED50 was less than 10 mg/kg.

As to `CC(=O)Nc1ccc(CN2CCC(CCc3ccccc3)(C3CCCCO3)CC2)cc1` (stereo not shown) [Compound 70, N-(4-((4-phenethyl-4-(tetrahydro-2H-pyran-2-yl)piperidin-1-yl)methyl)phenyl)acetamide], the ED50 is greater than 10 mg/kg.

For `CC(=O)Nc1ccc(CN2CCCC(/C=C/c3ccccc3)(c3ccccn3)C2)cc1` (stereo not shown) [Compound 71, (E)-N-(4-((3-(pyridin-2-yl)-3-styrylpiperidin-1-yl)methyl)phenyl)acetamide], the ED50 was greater than 10 mg/kg.

Consider `COCC1(CCc2ccccc2)CCN(Cc2ccc(NC(C)=O)cc2)CC1` [Compound 72, N-(4-((4-(methoxymethyl)-4-phenethylpiperidin-1-yl)methyl)phenyl)acetamide], for which the ED50 was greater than 10 mg/kg.

Regarding `CC(=O)Nc1ccc(CN2CCC(CCc3ccccc3)(C3CC=CCO3)CC2)cc1` (stereo not shown) [Compound 73, N-(4-((4-(3,6-dihydro-2H-pyran-2-yl)-4-phenethylpiperidin-1-yl)methyl)phenyl)acetamide], the ED50 is greater than 10 mg/kg.

In the case of `CC(=O)Nc1ccc(CN2CCC(CCc3ccccc3)(C3C=CCO3)CC2)cc1` (stereo not shown) [Compound 74, N-(4-((4-(2,5-dihydrofuian-2-yl)-4-phenethylpiperidin-1-yl)methyl)phenyl)acetamide], the ED50 is less than 10 mg/kg.

On to `COC1(CCc2ccccc2)CCN(Cc2ccc(NC(C)=O)cc2)CC1` [Compound 75, N-(4-((4-methoxy-4-phenethylpiperidin-1-yl)methyl)phenyl)acetamide], for which the ED50 is greater than 10 mg/kg.

For the compound `COCCC1(CCc2ccccc2)CCN(Cc2ccc(NC(C)=O)cc2)CC1.Cl` [Compound 76, N-(4-((4-(2-methoxyethyl)-4-phenethylpiperidin-1-yl)methyl)phenyl)acetamide HCl], the ED50 was greater than 10 mg/kg.

As to `CCOC(=O)NCC1(CCc2ccccc2)CCN(Cc2ccc(NC(C)=O)cc2)CC1` [Compound 77, ethyl (1-(4-acetamidobenzyl)-4-phenethylpiperidin-4-yl)methylcarbamate], the ED50 was greater than 10 mg/kg.

In the case of `CCOCC1(CCc2ccccc2)CCN(Cc2ccccc2)CC1` [Compound 78, 1-benzyl-4-(ethoxymethyl)-4-phenethylpiperidine], the ED50 is greater than 10 mg/kg.

Turning to `CCOCC1(CCc2ccccc2)CCN(C)CC1` [Compound 79, 4-(ethoxymethyl)-1-methyl-4-phenethylpiperidine], the ED50 is greater than 10 mg/kg.

On to `C=CCN1CCC(CCc2ccccc2)(COCC)CC1` [Compound 80, 1-allyl-4-(ethoxymethyl)-4-phenethylpiperidine], for which the ED50 was greater than 10 mg/kg.

On to `CCOCC1(CCc2ccccc2)CCN(Cc2ccc(NC(=O)CC)cc2)CC1` [Compound 81, N-(4-((4-(ethoxymethyl)-4-phenethylpiperidin-1-yl)methyl)phenyl)pro-pionamide], for which the ED50 was greater than 10 mg/kg.

As for `CCCCC(=O)Nc1ccc(CN2CCC(CCc3ccccc3)(COCC)CC2)cc1` [Compound 82, N-(4-((4-(ethoxymethyl)-4-phenethylpiperidin-1-yl)methyl)phenyl)pen-tanamide], the ED50 was greater than 10 mg/kg.

Regarding `CCOCC1(CCc2ccccc2)CCN(Cc2ccc(NC(N)=O)cc2)CC1` [Compound 83, 1-(4-((4-(ethoxymethyl)-4-phenethylpiperidin-1-yl)methyl)phenyl)urea], the ED50 is greater than 10 mg/kg.

Consider `CCOCC1(CCc2ccccc2)CCN(Cc2ccc(NC(C)=O)c(F)c2)CC1` [Compound 84, N-(4-((4-(ethoxymethyl)-4-phenethylpiperidin-1-yl)methyl)-2-fluorophenyl)acetamide], for which the ED50 is greater than 10 mg/kg.

For `CCOCC1(CCc2ccccc2)CCN(Cc2ccc(NC(C)=O)cc2F)CC1` [Compound 85, N-(4-((4-(ethoxymethyl)-4-phenethylpiperidin-1-yl)methyl)-3-fluorophenyl)acetamide], the ED50 was greater than 10 mg/kg.

Consider `CCOCC1(CCc2ccccc2)CCN(Cc2ccc(NC(C)=O)s2)CC1.Cl` [Compound 86, N-(5-((4-(ethoxymethyl)-4-phenethylpiperidin-1-yl)methyl)thiophen-2-yl)acetamide HCl], for which the ED50 is greater than 10 mg/kg.
